The source made the active and inactive calls. The calls are words filed in the database; no cut-off is given here.
Legend:
BMDC [1] = assay: Vaccine adjuvant activity in Balb/c mouse BMDC assessed as increase in IL-12 production at 10 uM incubated for 20 hrs by ELISA (reference value: 1.35 +/-0.1 ng/ml); format: functional
[2] = Cytotoxicity against Balb/c mouse BMDC assessed as cell viability at 10 uM incubated for 20 hrs by MTT assay (reference value: 100 +/-0.6%); format: toxicity, cell-based; conditions: BMDC (bone marrow-derived dendritic cells), read-out: Activity
THP-1 = assay: Vaccine adjuvant activity in human THP-1 cells expressing CD63-Turbo-luciferase and CD9-Emerald green fluorescent protein reporter assessed as extracellular vesicle release by measuring reporter activation at 10 uM incubated for 48 hrs by TurboLuc luciferase based chemiluminescence assay (reference value: 0%); format: functional
BMDC [3] = assay: Vaccine adjuvant activity in Balb/c mouse BMDC assessed as induction of Ca2+ influx at 10 uM by Fura-2/8-AM dye based fluorescence analysis (reference value: 0%); format: functional
[4] = Toxicity in ovalbumin-immunized BALB/c mouse assessed as weight loss at 200 nmol, im co-administered with ovalbumin on day 0 and day 21; format: organism-based; conditions: in vivo, 528 h, time 22 day
Mus musculus = assay: Vaccine adjuvant activity against ovalbumin-immunized BALB/c mouse assessed as increase in anti-OVA specific IgG titer in serum at 200 nmol, im co-administered with ovalbumin on day 0 and day 21 and measured on day 28 by ELISA; format: functional, organism-based; conditions: time 29.0 day
[5] = Toxicity in ovalbumin-immunized BALB/c mouse assessed as behavioural changes at 200 nmol, im co-administered with ovalbumin on day 0 and day 21; format: organism-based; conditions: in vivo, 528 h, time 22 day

CCOC(=O)c1sc(C)c(C)c1NS(=O)(=O)c1cccc2nsnc12
Activity (BMDC [1]): 1.67 ng/mL
viability at 20 h, 10 µM [2]: 130%
Activity (THP-1): 154.1%
Activity (BMDC [3]): 74.2%

CCOC(=O)c1c(NS(=O)(=O)c2cccc3nsnc23)sc2c1CCC2
Activity (BMDC [1]): 1.85 ng/mL
viability at 20 h, 10 µM [2]: 127%
Activity (THP-1): 94.9%
Activity (BMDC [3]): 121%

CCOC(=O)c1c(NS(=O)(=O)c2cccc3nsnc23)sc(-c2cccs2)c1C
Activity (BMDC [1]): 1.03 ng/mL
viability at 20 h, 10 µM [2]: 77%
Activity (THP-1): 17.9%
Activity (BMDC [3]): 100.6%

CCOC(=O)c1c(NS(=O)(=O)c2cccc3nc[nH]c23)sc(C)c1C
Activity (BMDC [1]): 1.51 ng/mL
viability at 20 h, 10 µM [2]: 111%
Activity (THP-1): 2%
Activity (BMDC [3]): -14.2%

CCOC(=O)c1c(NS(=O)(=O)c2cccc(N)c2N)sc(C)c1C
Activity (BMDC [1]): 1.39 ng/mL
viability at 20 h, 10 µM [2]: 107%
Activity (THP-1): 2.4%
Activity (BMDC [3]): -6.8%

Cc1sc(NS(=O)(=O)c2cccc3nsnc23)c(C(=O)OCCCCCNC(=O)OC(C)(C)C)c1C
Activity (BMDC [1]): 4.14 ng/mL
viability at 20 h, 10 µM [2]: 183%
Activity (THP-1): 111.5%
Activity (BMDC [3]): 103.9%

CCOC(=O)c1c(NS(=O)(=O)c2cccc3nsnc23)sc2c1CCN(CC)C2
Activity (BMDC [1]): 1.84 ng/mL
viability at 20 h, 10 µM [2]: 108%
Activity (THP-1): 1.3%
Activity (BMDC [3]): -10.8%

CCOC(=O)c1c(NS(=O)(=O)c2ccc(Br)c3nsnc23)sc(C)c1C
Activity (BMDC [1]): 1.9 ng/mL
viability at 20 h, 10 µM [2]: 96.3%
Activity (THP-1): 70.3%
Activity (BMDC [3]): 73.6%

Cc1sc(NS(=O)(=O)c2cccc3nsnc23)c(-c2nc(C#N)no2)c1C
Activity [4]: Non-Toxic
Activity (BMDC [1]): 1.59 ng/mL
viability at 20 h, 10 µM [2]: 97.6%
Activity (THP-1): 1.5%
Activity (BMDC [3]): -7%
Activity (Mus musculus): inactive
Activity [5]: Non-Toxic

CCCCCCOC(=O)c1c(NS(=O)(=O)c2cccc3nsnc23)sc(C)c1C
Activity (BMDC [1]): 3.44 ng/mL
viability at 20 h, 10 µM [2]: 106%
Activity (THP-1): 185.3%
Activity (BMDC [3]): 245%

Cc1sc(NS(=O)(=O)c2cccc3nsnc23)c(C(=O)OCCCCCN)c1C
Activity (BMDC [1]): 1.43 ng/mL
viability at 20 h, 10 µM [2]: 103%
Activity (THP-1): 0.7%
Activity (BMDC [3]): -2.6%

CCOC(=O)c1c(NS(=O)(=O)c2cccc3nc(O)[nH]c23)sc(C)c1C
Activity (BMDC [1]): 0.59 ng/mL
viability at 20 h, 10 µM [2]: 88.1%
Activity (THP-1): 0.4%
Activity (BMDC [3]): -14.3%

Reference: ChEMBL document CHEMBL5614396, “Structure-Activity Relationship Studies in Benzothiadiazoles as Novel Vaccine Adjuvants” (J Med Chem, 2024)
